Experimental data reported in patent US9474780B2, “GIP and GLP-1 co-agonist compounds” (Eli Lilly and Company, priority 2015, dated 2016).
Numbered stars: 1 amine (or outer) side, 2 acyl side, 3 side chain; on linkers, the order of the positions; unused ones are H or OH. Square brackets hold non-standard residues; d marks the D form. Side chains are listed from the residue outwards. Peptide text beside a SMILES is read from it. * marks the point of attachment. C18 diacid = O=C(O)CCCCCCCCCCCCCCCCC(=O)*; γGlu = O=C(O)[C@H](CCC(=O)[*:2])N[*:1]; 1Nal = N[C@@H](Cc1cccc2ccccc12)C(=O)O; AEEA = NCCOCCOCC(=O)O; Aib = CC(C)(N)C(=O)O

Legend:
human GIP-R = molecular target: T1, human GIP-R (Homo sapiens, UniProt P48546); assay: Functional hGIP-R cAMP assay in HEK-293 clonal cells; conditions: HEK293, read-out: Human GIP-R Emax
T1 sequence (P48546 22-466): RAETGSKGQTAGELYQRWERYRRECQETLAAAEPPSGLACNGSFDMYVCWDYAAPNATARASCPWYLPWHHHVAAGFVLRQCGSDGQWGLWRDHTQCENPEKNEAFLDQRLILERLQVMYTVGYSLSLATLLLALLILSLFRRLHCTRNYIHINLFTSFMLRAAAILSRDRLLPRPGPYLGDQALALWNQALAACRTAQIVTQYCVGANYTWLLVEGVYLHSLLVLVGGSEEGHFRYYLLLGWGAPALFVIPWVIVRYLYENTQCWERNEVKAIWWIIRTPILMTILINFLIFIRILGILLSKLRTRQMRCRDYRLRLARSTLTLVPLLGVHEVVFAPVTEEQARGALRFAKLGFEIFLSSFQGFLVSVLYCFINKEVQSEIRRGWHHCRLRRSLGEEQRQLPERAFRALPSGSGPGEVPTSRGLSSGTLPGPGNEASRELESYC

[1] = Pharmacokinetics in cynomolgus monkeys; type: in vivo; conditions: cynomolgus monkey, plasma, single SC 0.2 mg/kg, male monkeys, n = 2
Experimental: The compounds are administered by a single intravenous or subcutaneous dose (0.2 mg/kg) in 20 mM citrate buffer (pH 7.0) at a volume of 0.21 ml/kg. Blood is collected from each animal at 2, 4, 8, 12, 24, 48, 72, 96, 120, 144, 168, 204, 240, and 312 hours post-dosage. The plasma concentrations of compounds of the present invention are determined by a LC/MS method. Briefly, a compound of the present invention is extracted from 100% Monkey plasma sample (50 μl) diluted with 1×PBS (150 μl) and mixed with N-butanol (400 μl). Three distinct liquid layers are formed with the compound located in the top layer. A volume of 200 μl is transferred to a v-bottom 96-well plate, dried down using heated Nitrogen gas and reconstituted with 100 μl of 30% acetonitrile/0.1% formic acid. 20 μl of the reconstituted sample is injected onto a Supelco Analytical Discovery bio wide C5 3 μm column. The column effluent is directed into a Thermo Q-Exactive mass spectrometer for detection and quantitation.

[2] = Rat in vivo insulin secretion following intravenous glucose (IVGTT); conditions: s.c. 16 hour prior to glucose
Experimental: Male Wistar rats (Harlan Labs, Indianapolis, Ind.) are randomized by body weight and dosed 1.5 ml/kg s.c. 16 hour prior to glucose administration and then fasted. Doses are vehicle, 0.1, 0.3, 1, 3 and 10 nmol/kg. Animals are weighed, and then anesthetized with sodium pentobarbital (Nembutal Sodium solution; Ovation Pharmaceuticals) dosed i.p. (65 mg/kg, 30 mg/ml). A time zero blood sample is collected into EDTA tubes after which glucose is administered ([…], 5 ml/kg). Blood samples are collected at 2, 4, 6, 10, 20, and 30 minutes post glucose. Plasma glucose levels are determined using a Hitachi analyzer (Roche) and plasma insulin is measured by the MSD insulin assay (Meso Scale, Gaithersburg, Md.).

human GLP-1R [3] = molecular target: T2, human GLP-1R (Homo sapiens, UniProt P43220); assay: Functional hGLP-1R cAMP assay in HEK-293 clonal cells; type: cell-based; conditions: HEK293; percent of maximal response of hGLP-1(7-36)NH2
T2 construct: expressed in transfected cells; host or cells: 293HEK, Hygromycin-selected; crude plasma membranes
T2 sequence (P43220 24-463): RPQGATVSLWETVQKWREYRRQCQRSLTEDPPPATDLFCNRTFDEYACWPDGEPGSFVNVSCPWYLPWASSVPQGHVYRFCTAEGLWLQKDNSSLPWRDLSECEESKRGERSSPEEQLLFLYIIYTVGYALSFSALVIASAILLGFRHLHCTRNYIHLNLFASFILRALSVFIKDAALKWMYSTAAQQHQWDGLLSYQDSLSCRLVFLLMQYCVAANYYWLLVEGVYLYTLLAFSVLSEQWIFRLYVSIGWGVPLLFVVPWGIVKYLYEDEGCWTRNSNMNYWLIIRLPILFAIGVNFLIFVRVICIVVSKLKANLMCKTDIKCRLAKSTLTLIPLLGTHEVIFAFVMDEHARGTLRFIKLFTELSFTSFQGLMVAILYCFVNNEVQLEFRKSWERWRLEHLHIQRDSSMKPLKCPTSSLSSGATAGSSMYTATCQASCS
Experimental: After an incubation of 60 minutes at room temperature, the resulting increase in intracellular cAMP is quantitatively determined using the CisBio cAMP Dynamic 2 HTRF Assay Kit (Bedford, Mass.). Briefly, cAMP levels within the cell are detected by adding the cAMP-d2 conjugate in cell lysis buffer (20 μl) followed by the antibody anti-cAMP-Eu^3+-Cryptate, also in cell lysis buffer (20 μl). The resulting competitive assay is incubated for at least 60 minutes at room temperature, then detected using a PerkinElmer Envision® instrument with excitation at 320 nm and emission at 665 nm and 620 nm Envision units (emission at 665 nm/620 nm*10,000) are inversely proportional to the amount of cAMP present and are converted to nM cAMP per well using a cAMP standard curve. […] A relative EC50 value and percent top (Emax) is derived by non-linear regression analysis using the percent maximal response versus the concentration of the compound of the present invention, fitted to a four-parameter logistic equation.

mouse islets = assay: Mouse islet insulin secretion; type: cell-based; conditions: read-out: Mouse islet insulin secretion Mean ED50
Experimental: To assess action of compounds of the present invention in a system representing physiological GLP-1R and GIP-R expression levels insulin secretion, compounds are tested for effects on insulin secretion from wild-type rodent islets.
After common bile duct cannulation in male C57B1/6 mice (22-26 g) or male Sprague-Dawley rats (approx. 250 g), the pancreas is distended with Hank's buffer (3 ml for mice or 10 ml for rats, containing 2% BSA and 0.75 mg/ml Clzyme collagenase (VitaCyte). Subsequently, tissues are digested in Hank's buffer at 37° C. for 11-13 minutes (mice) or 14-16 minutes for rat pancreata. Purified islets (Histopaque-1100 gradient [Sigma-Aldrich], […] at 750× gravity) are cultured overnight in RPMI-1640 medium (Invitrogen) containing 10% FBS, 100 U/ml penicillin and 100 μg/ml streptomycin, and preconditioned by starvation in Earle's Balanced Salt Solution (EBSS) supplemented with 0.1% BSA and 2.8 mM glucose. Subsequently, islets are incubated in EBSS (Invitrogen) supplemented with 0.1% BSA, 2.8-11.2 mM glucose and increasing levels of compound (6 batches of 4 islets/condition). GLP-1(7-36)amide (30 nM) is used as a positive control. Insulin is measured over 90 minutes in supernatant using the MSD Insulin Assay (Meso Scale, Gaithersburg, Md.).

Human GCGR = Human GCGR (Homo sapiens, UniProt P47871); assay: Functional hGCGR cAMP assay in HEK-293 clonal cells
Chain of Human GCGR (P47871 26-477): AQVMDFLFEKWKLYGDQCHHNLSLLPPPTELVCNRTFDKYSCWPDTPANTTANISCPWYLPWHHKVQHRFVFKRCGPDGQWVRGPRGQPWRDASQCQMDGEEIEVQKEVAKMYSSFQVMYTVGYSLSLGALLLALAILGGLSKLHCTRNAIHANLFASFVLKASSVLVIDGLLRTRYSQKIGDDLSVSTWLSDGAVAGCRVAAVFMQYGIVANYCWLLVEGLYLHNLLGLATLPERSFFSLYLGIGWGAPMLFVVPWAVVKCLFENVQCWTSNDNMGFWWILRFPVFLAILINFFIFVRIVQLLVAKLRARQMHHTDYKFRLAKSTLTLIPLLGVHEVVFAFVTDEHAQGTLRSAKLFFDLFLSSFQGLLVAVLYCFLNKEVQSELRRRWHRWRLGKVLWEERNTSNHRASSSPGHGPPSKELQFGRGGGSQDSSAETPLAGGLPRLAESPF

human GLP-1R [4] = molecular target: T2, human GLP-1R; type: binding
[5] = Weight loss, body composition and hepatic steatosis in DIO mice; type: in vivo, mouse; conditions: for Blood Glucose: Day 15
Experimental: The effects on weight loss, body composition and hepatic steatosis in DIO mice for compounds of the present invention are evaluated in C57/BL6 DIO mice. […] Animals are individually housed in a temperature-controlled (24° C.) facility with a 12 hour light/dark cycle (lights on 22:00), and free access to food and water. […] Daily body weight and food intake are measured throughout the study. Absolute changes in body weight are calculated by subtracting the body weight of the same animal prior to the first injection of compound. […] On Day 15, blood glucose is measured with Accu-Chek glucometer (Roche) from tail vein blood and then animals may be sacrificed and livers removed and frozen. Liver triglycerides, determined from homogenates of livers collected at sacrifice, and plasma cholesterol are measured on a Hitachi Modular P clinical analyzer. Statistical comparisons between groups are done using one-way ANOVA followed by Dunnett's multiple comparison test. The ED50 for weight loss lowering is determined in GraphPad Prism using the non-linear fit tool.

CC[C@H](C)[C@H](NC(=O)[C@H](CC(C)C)NC(=O)[C@H](Cc1c[nH]c2ccccc12)NC(=O)[C@H](CCC(N)=O)NC(=O)[C@@H](NC(=O)[C@H](Cc1cccc2ccccc12)NC(=O)[C@H](C)NC(=O)[C@H](CCCCNC(=O)COCCOCCNC(=O)COCCOCCNC(=O)CC[C@H](NC(=O)CCCCCCCCCCCCCCCCC(=O)O)C(=O)O)NC(=O)[C@H](CCC(N)=O)NC(=O)[C@H](C)NC(=O)[C@@H](NC(=O)[C@H](CCCCN)NC(=O)[C@H](CC(=O)O)NC(=O)[C@H](CC(C)C)NC(=O)C(C)(C)NC(=O)[C@@H](NC(=O)[C@H](CO)NC(=O)[C@H](Cc1ccc(O)cc1)NC(=O)[C@H](CC(=O)O)NC(=O)[C@H](CO)NC(=O)[C@@H](NC(=O)[C@H](Cc1ccccc1)NC(=O)[C@@H](NC(=O)CNC(=O)[C@H](CCC(=O)O)NC(=O)C(C)(C)NC(=O)[C@@H](N)Cc1ccc(O)cc1)[C@@H](C)O)[C@@H](C)O)[C@@H](C)CC)[C@@H](C)CC)C(C)C)C(=O)N[C@@H](C)C(=O)NCC(=O)NCC(=O)N1CCC[C@H]1C(=O)N[C@@H](CO)C(=O)N[C@@H](CO)C(=O)NCC(=O)N[C@@H](C)C(=O)N1CCC[C@H]1C(=O)N1CCC[C@H]1C(=O)N1CCC[C@H]1C(=O)N[C@@H](CO)C(N)=O [Example 6] (H-Y[Aib]EGTFTSDYSI[Aib]LDKIAQK([AEEA-AEEA-γGlu-C18 diacid])A[1Nal]VQWLIAGGPSSGAPPPS-NH2)
Emax (human GIP-R): 106 ± 3% | CL/F [1]: 2.8 mL/h/kg | Cmax [1]: 2200 ng/mL | AUC(0-inf) ([1]; read-out: Mean AUC0-inf): 72300 ng·h/mL | half-life ([1]; read-out: Mean T1/2 (converted)): 23 h | Tmax ([1]; read-out: Mean Tmax): 4 h | % max increase of insulin AUC [2]: 289 +/− 4% | ED50 for insulin, rat IVGTT [2]: 2.58 nmol/kg | Emax (human GLP-1R [3]): 104 ± 4% | EC50 (mouse islets): 51.4 nM | EC50 (Human GCGR): > 1000 nM | Molar ratio of hGLP-1R/hGIP-R (human GLP-1R [4]; normalized by factor 4.53 from native GIP and GLP-1 binding): 1.83 | Absolute ratio of hGLP-1R/hGIP-R (human GLP-1R [4]; ratio of Ki values): 8.3 | % Change from starting body weight ([5]; Table 8, 10 nmol/kg): −15.31 ± 1.25 % | % Change from starting fat mass ([5]; Table 8, 10 nmol/kg): −24.75 ± 1.89 % | % Change from starting body weight ([5]; Table 8, 30 nmol/kg): −21.62 ± 0.92 % | % Change from starting fat mass ([5]; Table 8, 30 nmol/kg): −36.30 ± 2.47 % | % Change from starting body weight ([5]; Table 8, 100 nmol/kg): −33.95 ± 1.93 % | % Change from starting fat mass ([5]; Table 8, 100 nmol/kg): −64.64 ± 4.04 % | % Change from starting body weight ([5]; Table 10, 10 nmol/kg): −17.54 ± 1.17 % | % Change from starting fat mass ([5]; Table 10, 10 nmol/kg): −34.30 ± 1.20 % | % Change from starting body weight ([5]; Table 10, 30 nmol/kg): −19.52 ± 1.18 % | % Change from starting fat mass ([5]; Table 10, 30 nmol/kg): −39.52 ± 3.18 % | % Change from starting body weight ([5]; Table 10, 100 nmol/kg): −29.36 ± 2.62 % | % Change from starting fat mass ([5]; Table 10, 100 nmol/kg): −56.66 ± 4.96 % | Plasma Cholesterol ([5]; Table 11, 10 nmol/kg): 198.4 ± 6.76 mg/dL | Plasma Triglycerides ([5]; Table 11, 10 nmol/kg): 20.78 ± 4.40 mg/dL | Blood Glucose ([5]; Table 11, 10 nmol/kg): 105.8 ± 2.10 mg/dL | Plasma Cholesterol ([5]; Table 11, 30 nmol/kg): 186.4 ± 17.04 mg/dL | Plasma Triglycerides ([5]; Table 11, 30 nmol/kg): 26.12 ± 6.85 mg/dL | Blood Glucose ([5]; Table 11, 30 nmol/kg): 100.1 ± 3.29 mg/dL | Plasma Cholesterol ([5]; Table 11, 100 nmol/kg): 151.4 ± 14.32 mg/dL | Plasma Triglycerides ([5]; Table 11, 100 nmol/kg): 17.26 ± 1.67 mg/dL | Blood Glucose ([5]; Table 11, 100 nmol/kg): 103.6 ± 3.20 mg/dL | Plasma Cholesterol ([5]; Table 13, 10 nmol/kg): 167.8 ± 15.59 mg/dL | Blood Glucose ([5]; Table 13, 10 nmol/kg): 121.4 ± 2.74 mg/dL | Plasma Cholesterol ([5]; Table 13, 30 nmol/kg): 159.8 ± 9.99 mg/dL | Blood Glucose ([5]; Table 13, 30 nmol/kg): 121.9 ± 6.65 mg/dL | Plasma Cholesterol ([5]; Table 13, 100 nmol/kg): 144.2 ± 7.12 mg/dL | Blood Glucose ([5]; Table 13, 100 nmol/kg): 116.1 ± 4.67 mg/dL
